These results are taken from BindingDB's records for doi:10.1016/j.bmcl.2007.01.064 (Vertex Pharmaceuticals, 2007).

pKi: −log10 of the molar value.

This assay addresses T1, Disintegrin and metalloproteinase domain-containing protein 17 [215-477,S266A,N452Q] (Homo sapiens, UniProt P78536, N452Q/S266A).
T1 construct: 215-477
The experiment in a line: TACE Inhibition Assay. To be noted: pH 7.5; 22 °C. How it is done: The compounds were tested for TACE inhibition using fluorescence resonance energy transfer (FRET) assay. TACE catalyzed cleavage of the substrate peptide liberates the fluoropore from the proximity of the adjacent quenching moiety, and an increase in fluorescence signal results.

T1 sequence (P78536 215-477 S266A/N452Q): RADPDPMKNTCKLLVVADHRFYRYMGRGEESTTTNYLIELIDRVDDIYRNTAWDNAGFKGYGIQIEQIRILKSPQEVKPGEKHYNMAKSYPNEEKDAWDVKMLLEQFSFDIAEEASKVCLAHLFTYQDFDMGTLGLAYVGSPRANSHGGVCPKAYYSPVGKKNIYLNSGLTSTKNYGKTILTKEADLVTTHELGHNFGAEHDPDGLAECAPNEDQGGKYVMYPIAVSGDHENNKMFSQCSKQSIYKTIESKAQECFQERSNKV

For the molecule `CC#CCOc1ccc(S(=O)(=O)N(C)CCS)cc1` [4-(but-2-yn-1-yloxy)-N-methyl-N-(2-sulfanylethyl)benzene-1-sulfonamide], the pKi was 7.25.

As a reminder, the pKi is the Ki on a negative log10 scale, so that one unit is a factor of ten.
